Source: patent US20240050406A1, “COMPOSITION COMPRISING OXIRACETAM FOR PREVENTING OR TREATING MUSCULAR DISEASE” (KSB TUGEN INC., priority 2021, published 2024)

What was measured:
[1] = test system: animal model in which muscular atrophy is induced by dexamethasone; assay: Comparison with dementia drugs in dexamethasone muscular atrophy model (Experimental Example 5); format: in vivo, ICR mice
Text: For an experimental group in the present invention, oxiracetam having a structure of Formula 1 was purchased from Tokyo Chemical Industry (Japan; Product No. 00398, CAS RN:62613-82-5, purity: 96%) and used. Mirtazapine and olanzapine were purchased from Tokyo Chemical Industry (Japan, Product Nos. M2151, 00393, purity: 96%) and used.
As experimental animals, 7-week-old male ICR mice were purchased and used. Until the day of the experiment, general feed (EEGJ30060: Cargill Agri Purina, Seongnam, Korea) and water were sufficiently supplied to the experimental animals, and the animals were acclimated for 1 week under an environment of a temperature of 23±2° C., a humidity of 55±10%, and a light-dark cycle of 12 hours-12 hours and used in the experiment.
After the acclimation period for the experimental animals, to create a muscular atrophy model, the mice were randomly divided into groups of 7 animals, such as a control (vehicle, n=7), a dexamethasone-treated group (n=7), and a drug-administered group (n=7). The groups except for the control were intraperitoneally injected dexamethasone at a dose of 10 mg/kg from day 7 to day 21 for 14 days. In the case of the drug-administered group, 7 days before the intraperitoneal administration of dexamethasone, the drug was orally administered using a Zonde needle at a dose of 30 or 10 mg/kg/day once a day for 21 days. During the same period, the control was administered no drug, and 100 μL of normal saline was orally administered at a time. To the dexamethasone-treated group (dexamethasone excipient, CMC), instead of the drug, 100 μL of a 0.5% carboxymethylcellulose (CMC) solution was administered. This is to set the effect on the excipient as a blank.
To measure grip strength, a grip strength test was performed. The maximum force presented when the forelimbs of an animal model of each group could no longer hold the rod by pulling the tail horizontally while holding the tail of the animal model and holding the rod of a device with both front paws was considered to be grip strength (N). Grip strength adaptation training was performed at least three times before drug administration. After measurement before drug administration (day 0) and on day 20 after drug administration began, grip strength variation (%) after drug administration began (day 20) with respect to that before drug administration (day 0) was calculated.
The lean body mass of the gastrocnemius muscle (GS) and the lean body mass of the tibialis anterior (TA) for each group were measured every 7 days. Specifically, animal models of each group were anesthetized using 3% isoflurane, fixed to a photographing bed and then photographed. During photographing, the respiratory rates and body temperatures of the animal models were measured with an animal monitoring system (SA Instruments, USA).
The whole body of the animal model was photographed through dual energy X-ray absorptiometry (DEXA) using iNSiGHT VET DXA (Osteosys, KR), and the lean body mass of each of the gastrocnemius muscle (GS) and the tibialis anterior (TA) was measured and calculated from the two-dimensional images of the gastrocnemius muscle (GS) and the tibialis anterior (TA) by a program using the region of interest (ROI).
(§1) Statistical processing was performed using GraphPad Prism (GraphPad Software Inc., San Diego, CA, USA). The results of each repeated experiment were expressed as mean±standard error of mean, and analyzed using the analysis of variance (Tukey's test), and statistical significance was acknowledged when the P-value was 0.05 or less.

C2C12 myotubes [2] = assay: Myotube diameter in doxorubicin-induced cachexia cell model (Experimental Example 8); format: cell-based, mouse; settings: doxorubicin 500 nM 48 h with or without oxiracetam 0.01, 0.1, 1, 10 and 30 μM; relative to control
Experimental: A mouse-derived C2C12 cell line was provided from the American Type Culture Collection (ATCC, CRL-1772; Manassas, VA, USA) and cultured at 37° C. in 5% CO2. In the proliferation phase of the cells before differentiation, high concentration glucose Dulbecco's modified Eagle's medium (DMEM) containing 1% penicillin/streptomycin and 10% fetal bovine serum (FBS) medium were used, and in the differentiation induction, the FBS medium was replaced with a 2% horse serum (HS)-containing medium. The C2C12 myoblasts were seeded into a 96 well culture plate and a 6 well culture plate at 2×10^5/well and 5×10^3/well, respectively, and cultured at 37° C. in a CO2 incubator. […]
Two days after anticancer agent and oxiracetam treatment, the anticancer agent-treated group (Doxorubicin), the oxiracetam-treated groups (Oxiracetam 0.01 μM, 0.1 μM, 1 μM, 10 μM and 30 μM), and the control (control) were photographed using an optical microscope at a room temperature, and the diameter (Diameter, %) of a myotube in each group was measured and compared.
as §1

C2C12 myotubes [3] = assay: Myotube diameter in TNF-α muscular atrophy cell model (Experimental Example 7); format: cell-based, mouse; settings: TNF-α 10 ng/ml 48 h with oxiracetam 10 μM or 0 μM; relative to non-treated control
Experimental: A mouse-derived C2C12 cell line was provided from the American Type Culture Collection (ATCC, CRL-1772; Manassas, VA, USA) and cultured at 37° C. in 5% CO2. In the proliferation phase of the cells before differentiation, high concentration glucose Dulbecco's modified Eagle's medium (DMEM) containing 1% penicillin/streptomycin and 10% fetal bovine serum (FBS) medium were used, and in the differentiation induction, the FBS medium was replaced with a 2% horse serum (HS)-containing medium. The C2C12 myoblasts were seeded into a 96 well culture plate and a 6 well culture plate at 2×10^5/well and 5×10^3/well, respectively, and cultured at 37° C. in a CO2 incubator. When the confluency reached approximately 90%, the medium was replaced with 2% horse serum (HS)-containing DMEM to induce differentiation of myoblasts. After 5 days, the C2C12 myotubes that had differentiated were treated with 10 ng/ml TNF-α, which is an inflammatory factor, for 48 hours to cause myotube atrophy, thereby creating a muscular atrophy cell model, TNF-α-treated group (TNF-α). During the TNF-α treatment, 10 μM oxiracetam was treated to create an oxiracetam-treated group (Oxiracetam 10 μM), cells that were not treated during the same period were prepared as a control. Two days after TNF-α and oxiracetam treatment, each of the TNF-α-treated group (TNF-α), the oxiracetam-treated group (Oxiracetam 10 μM) and the control was treated with an ATP detection reagent at room temperature, and then luminescence was measured using a mitochondrial ToxGlo™ assay kit (Promega). In addition, the TNF-α-treated group (TNF-α), the oxiracetam-treated group (Oxiracetam 10 μM) and the control were photographed using an optical microscope and the diameter of a myotube cell in each group were measured and compared. Statistical processing was performed using GraphPad Prism (GraphPad Software Inc., San Diego, CA, USA).

[4] = oxiracetam 30, mirtazapine 10, olanzapine 10 mg/kg/day oral 21 days + dexamethasone, DEXA every 7 days

CN1CCN2c3ncccc3Cc3ccccc3C2C1 (centres unmarked) [mirtazapine]
change in grip strength ([1]; oxiracetam 30, mirtazapine 10, olanzapine 10 mg/kg/day oral 21 days + dexamethasone 10 mg/kg i.p. day 7-21): reduced | lean body mass of the gastrocnemius muscle (GS) [1, 4]: not recovered but rather reduced | lean body mass of the tibialis anterior (TA) [1, 4]: not recovered but rather reduced

COc1cccc2c1C(=O)c1c(O)c3c(c(O)c1C2=O)C[C@@](O)(C(=O)CO)C[C@@H]3O[C@H]1C[C@H](N)[C@H](O)[C@H](C)O1 [Doxorubicin, doxorubicin]
diameter of myotube (C2C12 myotubes [2]): significantly decreased

TNF-α
diameter of a myotube relative to control (C2C12 myotubes [3]): greatly reduced to half the level of the control
